Measured values as given in patent publication US6730666B1, “Pharmaceutical compositions comprising porphyrins and some novel porphyrin derivatives” (Yeda Research and Development Co. Ltd., priority 1998, dated 2004).

Experiments:
smooth muscle cells = test: Smooth muscle cell proliferation induced by bFGF; type: cell-based; conditions: 2 μg/ml or 20 μg/ml of P1; bFGF 10 ng/ml; FIG. 16
Protocol: In order to determine the ability of P1 to inhibit the biological activity of bFGF on cell proliferation, smooth muscle cells were grown in 24-well plates in the presence of bFGF (10 ng/ml) and in the presence of 2 μg/ml or 20 μg/ml of P1. Cell number was determined daily by counting cell samples under a microscope.

[1] = test system: microvascular tubules sprouting from rat aorta sections; test: Rat aorta in vitro angiogenesis assay (collagen gel, bFGF-induced); type: cell-based
Protocol: (vi) Rat aorta in vitro angiogenesis assay. Rings of rat aorta sections were immobilized in a three-dimensional collagen gel, in the presence of serum free growth medium (D/MEM) (Nicosia & Ottinetti, 1990). Porphyrin or corrole compound and bFGF (2 ng/ml) were added to the growth medium twice a week when indicated. After 14 days the cultures were fixed, and the extent of microvascular endothelial tube outgrowth was measured under a light microscope (Miao et al., 1997).
The effect of P1 was further examined in a biological assay for angiogenesis in vitro. Angiogenic vascularization is a process in which bFGF is known to play a pivotal role (Folkman, 1989). To examine the inhibitory effects of the porphyrin on bFGF-promoted angiogenesis, we employed an in vitro angiogenic assay using rat aorta sections embedded in a collagen gel (Methods, section (vi)). The assay measures the extent of endothelial cell growth and microvascular tubules sprouting from the vessel tissue embedded in the gel. Basal tubule formation can be detected even when no additional factors are added.

VEGF receptor KDR = target: T1, VEGF receptor KDR (Homo sapiens, UniProt P35968); test: Binding of 125I-VEGF to endothelial cells transfected with VEGF receptor KDR; parameters: species or system bovine; conditions: FIG. 10A
T1 construct: expressed in transfected cells; host or cells: bovine aortic endothelial cells
Protocol: Binding of ^125I-VEGF to confluent monolayers of endothelial cells expressing KDR was performed as described in Methods, section (x), in the presence of increasing concentrations of P1 and of unlabeled VEGF; and
x) Binding of ^125I-VEGF to cells. Confluent cultures of bovine aortic endothelial cells transfected with the VEGF receptor KDR were tested for binding of radiolabeled ^125I-VEGF as described in method (iv) above for the FGFR-1 expressing cells.

ERK = ERK phosphorylation in FGFR-3 expressing cells induced by FGF-9; type: cell-based; conditions: FIG. 15B
Protocol: (§1) (viii) Immunoblots. To the overnight serum-starved cells (2 plates for each treatment), 500 μl of F12^++ medium were added which either contained or not the respective porphyrin or corrole compound in a final concentration of […] for 40 min at 37° C. One of the two plates of each treatment was then stimulated with FGF9 (+) (75 ng/ml) and to the second plate only medium (−) was added for 10 min at 37° C. The cells were washed twice with PBS. 600 μl of SBN lysis buffer containing 1% NP-40 and 1 mM vanadate were added and left on ice for 10 min. The plates were then scraped and left on ice for additional 10 min. The lysate was span down in Eppendorf centrifuge for 15 min, 15000 rpm at 4° C. The supernatants were kept and Bradford protein determinant on assay was performed in the samples. 500 μg protein from each sample were taken for immunoprecipitation with 7.5 μl antibody against FGFR-3, 4 hr at 4° C.
(§2) These findings support the notion that the porphyrins can serve for treating FGFR-3 related growth disorders. ERK1 and ERK2 are two isoforms of ERK.

FGF receptor = FGF receptor (Mus musculus, UniProt P16092); test: In vitro inhibition of bFGF binding (assay format not stated); conditions: inhibition of bFGF binding
PLC-γ = PLC-γ phosphorylation in FGFR-3 expressing cells induced by FGF-9; type: cell-based; conditions: FIG. 15A
Protocol: as §1, §2

Chain of FGF receptor (P16092 22-822): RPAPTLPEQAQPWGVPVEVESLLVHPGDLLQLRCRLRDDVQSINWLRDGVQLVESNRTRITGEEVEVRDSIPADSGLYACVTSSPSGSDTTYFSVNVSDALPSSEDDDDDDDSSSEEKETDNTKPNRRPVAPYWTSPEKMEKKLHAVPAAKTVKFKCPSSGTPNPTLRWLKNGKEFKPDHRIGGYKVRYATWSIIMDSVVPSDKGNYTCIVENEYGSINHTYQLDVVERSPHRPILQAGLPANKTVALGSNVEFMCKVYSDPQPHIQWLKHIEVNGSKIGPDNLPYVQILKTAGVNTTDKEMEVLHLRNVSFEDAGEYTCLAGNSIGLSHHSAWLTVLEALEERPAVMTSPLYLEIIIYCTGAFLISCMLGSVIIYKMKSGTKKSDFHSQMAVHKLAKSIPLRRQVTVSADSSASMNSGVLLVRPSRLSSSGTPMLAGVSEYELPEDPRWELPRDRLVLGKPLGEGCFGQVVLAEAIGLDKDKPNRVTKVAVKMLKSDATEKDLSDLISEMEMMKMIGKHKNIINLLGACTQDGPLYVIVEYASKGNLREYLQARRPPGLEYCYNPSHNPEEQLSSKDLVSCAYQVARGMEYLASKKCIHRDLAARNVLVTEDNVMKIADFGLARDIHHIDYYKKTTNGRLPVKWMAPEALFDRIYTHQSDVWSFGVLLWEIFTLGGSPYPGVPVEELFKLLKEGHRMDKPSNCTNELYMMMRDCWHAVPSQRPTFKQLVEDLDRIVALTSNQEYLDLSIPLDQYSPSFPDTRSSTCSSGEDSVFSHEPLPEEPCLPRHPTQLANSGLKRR
T1 sequence (P35968 20-1356): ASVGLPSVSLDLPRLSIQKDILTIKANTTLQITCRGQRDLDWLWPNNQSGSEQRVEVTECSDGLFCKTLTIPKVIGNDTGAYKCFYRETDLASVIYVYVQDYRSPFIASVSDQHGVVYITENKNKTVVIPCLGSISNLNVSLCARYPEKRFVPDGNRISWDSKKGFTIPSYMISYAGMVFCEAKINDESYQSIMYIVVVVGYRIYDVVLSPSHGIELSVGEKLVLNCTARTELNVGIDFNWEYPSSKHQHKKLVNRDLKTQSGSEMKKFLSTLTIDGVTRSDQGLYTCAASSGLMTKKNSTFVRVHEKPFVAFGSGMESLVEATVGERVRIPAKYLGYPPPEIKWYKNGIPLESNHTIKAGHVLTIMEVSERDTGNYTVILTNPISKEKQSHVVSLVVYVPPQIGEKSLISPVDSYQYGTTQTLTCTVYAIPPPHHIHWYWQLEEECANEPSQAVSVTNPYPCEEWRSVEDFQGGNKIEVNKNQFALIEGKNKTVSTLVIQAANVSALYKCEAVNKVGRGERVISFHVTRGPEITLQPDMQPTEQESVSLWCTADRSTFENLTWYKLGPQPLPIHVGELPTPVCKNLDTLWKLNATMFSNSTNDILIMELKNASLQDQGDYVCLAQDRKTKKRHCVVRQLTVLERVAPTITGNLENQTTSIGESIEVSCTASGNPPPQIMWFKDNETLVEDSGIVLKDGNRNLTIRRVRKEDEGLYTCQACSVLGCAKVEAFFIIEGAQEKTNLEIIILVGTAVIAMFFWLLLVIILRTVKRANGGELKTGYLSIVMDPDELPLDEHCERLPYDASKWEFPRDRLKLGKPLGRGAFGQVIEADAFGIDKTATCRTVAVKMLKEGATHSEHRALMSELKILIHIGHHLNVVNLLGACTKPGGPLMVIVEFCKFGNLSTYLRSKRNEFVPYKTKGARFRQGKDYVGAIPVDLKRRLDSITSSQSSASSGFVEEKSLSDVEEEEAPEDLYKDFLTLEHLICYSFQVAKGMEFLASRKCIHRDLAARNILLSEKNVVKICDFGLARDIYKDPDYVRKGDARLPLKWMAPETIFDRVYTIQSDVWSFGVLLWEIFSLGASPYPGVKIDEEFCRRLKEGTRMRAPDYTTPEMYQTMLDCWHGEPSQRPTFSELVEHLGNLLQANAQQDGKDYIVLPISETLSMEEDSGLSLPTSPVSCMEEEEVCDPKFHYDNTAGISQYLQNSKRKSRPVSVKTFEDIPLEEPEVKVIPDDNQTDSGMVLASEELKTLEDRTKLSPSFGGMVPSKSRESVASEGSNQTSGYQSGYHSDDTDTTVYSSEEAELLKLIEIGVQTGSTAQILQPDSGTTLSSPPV

| SMILES | Effect on smooth muscle cell proliferation induced by bFGF (smooth muscle cells) | Effect on bFGF-induced endothelial cell growth ([1]; 10 μM, with 2 ng/ml bFGF) | Effect on microvascular tubules ([1]; 100 μl P1, with 2 ng/ml bFGF) | Inhibition of 125I-VEGF binding to KDR/flk-1 expressing cells, in words (VEGF receptor KDR) | Effect on ERK activation (ERK) | Activity in vitro relative to P1 (fold) (FGF receptor) | Effect on PLC-γ activation (PLC-γ) |
| --- | --- | --- | --- | --- | --- | --- | --- |
| C[n+]1ccc(-c2c3nc(c(-c4cc[n+](C)cc4)c4ccc([nH]4)c(-c4cc[n+](C)cc4)c4nc(c(-c5cc[n+](C)cc5)c5ccc2[nH]5)C=C4)C=C3)cc1 [Compound P1, 5,10,15,20-Tetrakis(N-methyl-4-pyridylium)-21H,23H-porphine tetra-p-tosylate] | strong inhibitory effect | dramatically reduced the extent of endothelial cell growth | complete inhibition of microvascular tubules | efficiently inhibits |  |  |  |
| C[n+]1ccc(-c2c3nc(c(-c4cc[n+](C)cc4)c4ccc([nH]4)c(-c4c(F)c(F)c(F)c(F)c4F)c4nc(c(-c5cc[n+](C)cc5)c5ccc2[nH]5)C=C4)C=C3)cc1.[I-].[I-].[I-] [Compound P16, 5-Pentafluorophenyl-10,15,20-tris(N-methyl-4-pyridylium)-21H,23H-porphine triiodide] |  |  |  |  | clear reduction in the activation | about 50 fold | clear reduction in the activation |
